Test results published in ChEMBL document CHEMBL2029345, “BC-spiro-estradiols. Synthesis and estrogen receptor binding affinity of four new estradiol isomers” (Bioorg Med Chem Lett, 2012).

Tests used:
[1] = biological target: Estrogen receptor beta (Homo sapiens) (UniProt Q92731); assay: Displacement of [3H]estradiol from human full length estrogen receptor beta by competitive radiometric assay relative to estradiol
[2] = biological target: T1, Estrogen receptor (Homo sapiens) (UniProt P03372); assay: Displacement of [3H]estradiol from human full length estrogen receptor alpha by competitive radiometric assay relative to estradiol
T1 sequence (whole entry): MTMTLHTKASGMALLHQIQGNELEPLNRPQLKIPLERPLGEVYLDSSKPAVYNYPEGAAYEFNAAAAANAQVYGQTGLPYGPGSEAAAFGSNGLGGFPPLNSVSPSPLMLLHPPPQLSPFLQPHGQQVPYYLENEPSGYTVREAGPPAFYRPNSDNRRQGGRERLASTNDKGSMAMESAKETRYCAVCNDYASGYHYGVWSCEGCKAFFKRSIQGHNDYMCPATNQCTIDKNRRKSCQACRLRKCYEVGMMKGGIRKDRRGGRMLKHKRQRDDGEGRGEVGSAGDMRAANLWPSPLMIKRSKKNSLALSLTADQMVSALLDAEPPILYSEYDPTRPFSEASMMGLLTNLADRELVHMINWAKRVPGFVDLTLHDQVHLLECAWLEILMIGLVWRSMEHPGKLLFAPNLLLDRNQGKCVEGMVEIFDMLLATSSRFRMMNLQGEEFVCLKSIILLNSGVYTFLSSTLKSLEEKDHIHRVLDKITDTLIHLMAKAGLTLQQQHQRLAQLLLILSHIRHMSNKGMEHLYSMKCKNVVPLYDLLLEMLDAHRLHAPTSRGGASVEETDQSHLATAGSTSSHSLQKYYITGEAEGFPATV

Sequence of Estrogen receptor beta (Homo sapiens) (Q92731 whole entry): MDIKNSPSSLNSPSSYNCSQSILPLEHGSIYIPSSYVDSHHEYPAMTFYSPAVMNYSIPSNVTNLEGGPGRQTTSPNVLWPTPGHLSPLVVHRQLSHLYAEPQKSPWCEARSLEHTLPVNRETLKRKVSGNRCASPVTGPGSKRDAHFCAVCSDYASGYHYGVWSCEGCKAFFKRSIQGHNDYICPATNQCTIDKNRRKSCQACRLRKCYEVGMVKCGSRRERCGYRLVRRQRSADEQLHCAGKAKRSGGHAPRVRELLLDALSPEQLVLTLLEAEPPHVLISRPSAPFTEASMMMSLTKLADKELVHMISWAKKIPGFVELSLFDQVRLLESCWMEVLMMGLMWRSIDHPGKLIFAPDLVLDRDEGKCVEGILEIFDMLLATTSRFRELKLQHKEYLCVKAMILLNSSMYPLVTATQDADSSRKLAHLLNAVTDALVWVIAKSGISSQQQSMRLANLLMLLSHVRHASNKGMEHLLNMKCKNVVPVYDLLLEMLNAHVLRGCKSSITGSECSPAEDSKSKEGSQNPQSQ

| SMILES | relative binding affinity (RBA) [1] | relative binding affinity (RBA) [2] |
| --- | --- | --- |
| C[C@]12CC[C@]3(C[C@H]1CC[C@@H]2O)OCCc1cc(O)ccc13 | 3.47 | 0.31 |
| C[C@]12CC[C@]3(C[C@H]1CC[C@@H]2O)OC(=O)c1cc(O)ccc13 | 6.07 | 1.98 |
| C[C@]12CC[C@@]3(CCc4cc(O)ccc43)C[C@H]1CC[C@@H]2O | 40.5 | 6.4 |
| C[C@]12CC[C@]3(CCc4cc(O)ccc43)C[C@@H]1CC[C@@H]2O | 0.23 | 0.12 |
| C[C@]12CC[C@@]3(C[C@H]1CC[C@H]2O)OCc1cc(O)ccc13 | 0.02 | 0.014 |
| C[C@]12CC[C@@]3(CCCc4cc(O)ccc43)C[C@H]1CC[C@@H]2O | 39.7 | 3.7 |
| C[C@]12CC[C@@H](c3ccc(O)cc3)C[C@H]1CC[C@H]2O | 0.59 | 0.061 |
| C[C@]12CC[C@@]3(CCc4cc(O)ccc43)C[C@@H]1CC[C@@H]2O | 2.43 | 0.98 |
| C[C@]12CC[C@]3(C[C@H]1CC[C@@H]2O)OCc1cc(O)ccc13 | 9.05 | 2.46 |
| C[C@]12CC[C@H](c3ccc(O)cc3)C[C@@H]1CC[C@@H]2O | 9.97 | 2.38 |
| C[C@]12CC[C@]3(CCCc4cc(O)ccc43)C[C@H]1CC[C@H]2O | 0.16 | 0.05 |
| C[C@]12CC[C@]3(CCc4cc(O)ccc43)C[C@H]1CC[C@H]2O | 0.37 | 0.34 |
